Results taken from patent publication US10507199B2, “Molecules in the tryptophan-5-hydroxytryptophan-serotonin-NAS-melatonin/6-hydroxymelatonin sulfate-melatonin receptor 1A pathway in neurological diseases” (priority 2017, dated 2019).
“Also recorded” adds a separate entry of the source.

Experiments:
[1] = tested on: melatonin receptor 1A (MT1); settings: melatonin 10 mg/kg, 30 min prior to H-I; 48 hr post H-I
Method: A model of hypoxia-ischemia in newborn mice pups based on modification of Rice-Vannucci model of unilateral carotid ligation (UCL) followed by hypoxia was used.^40 C57/BL6 wild type and MT1 knockout (KO) mice litters of postnatal day 8 (P8) pups were anesthetized with 2.5% isofluorane and balanced room air, and the right common carotid artery permanently ligated. Time to anesthesia and completion of surgery was timed with a stopwatch to limit the procedure to less than 3 min. Following recovery from anesthesia after 15 min, the pups were placed in hypoxia chamber through which 8% oxygen was delivered at 6 liters per min for 60 min for histology, western blot and immunostaining and 45 mins for FJB staining. Normothermia was maintained by placing the pups in an incubator at 34° C. throughout the experiment except during hypoxia when the temperature was increased to 36° C. to counteract the cooling effect of the 8% 02 gas flow. […]
The lysate was cleared by centrifugation at 19,720×g for 10 min at 4° C., and the supernatant was analyzed by Western blotting.^20 Following right unilateral carotid ligation (UCL), C57/BL6 P8 pups were subjected to 60 min of hypoxia. […] The resulting supernatants were analyzed by Western blotting.^20, 44 Protein concentration was measured by the Bradford method.

[2] = tested on: neonatal H-I brain injury (P8 mice, unilateral carotid ligation and 60 min hypoxia); assay: Neonatal hypoxia-ischemia mouse model, H&E staining and brain area loss; assay type: in vivo
Method: For histological analyses, after various time points after H-I brain injury, mice were anesthetized with IP injection of 100 mg/kg pentobarbital and then perfused through the left ventricle with PBS. […] The sections corresponding to image 205 up to caudal hippocampus region of Allen mouse brain atlas were directly mounted on SuperFrost Plus® microscope slides. H&E staining was performed on the brain at 7 days post H-I injury comprising of right unilateral carotid ligation and 60 min hypoxia. Brain sections of 50 μm thickness were stained with hematoxylin and eosin (all reagents from Fisher Scientific, Santa Clara, Calif.), dehydrated in graded ethanol solutions, cleared with xylene, examined under light microscope, and subsequently scanned with Epsom V500 photo scanner for measurements. The cross-sectional unaffected and affected areas of the hippocampus, and cortex were measured with NIH imageJ software. A total of 5 coronal slices through the same hippocampus regions were inspected for tissue loss for each animal. The total cross-sectional area in each brain region was calculated in all sections assessed, and the percentage of area loss in the lesioned hemisphere versus the unlesioned hemisphere was determined for each animal. The person performing the measurements was blinded to the study groups. Images of H & E stained sections were quantified using ImageJ software package to measure hemispheric area contralateral and ipsilateral to the H-I brain injury in order to calculate the amount of tissue lost on the ipsilateral hemisphere. The loss of brain tissue ipsilateral to the H-I injury was calculated as a percentage of the non-injured contralateral hemisphere.

[3] = tested on: neonatal hypoxic-ischemic brain injury; settings: melatonin 15 mg/kg; Carloni et al.; cited from earlier work
[4] = tested on: neonatal H-I brain injury (P8 mice, unilateral carotid ligation and 45 min hypoxia); assay: Neonatal hypoxia-ischemia mouse model, Fluoro-Jade B staining and histological score; assay type: in vivo; settings: melatonin 5 mg/kg IP once daily, 48 hr after H-I
Method: FJB staining was performed at 48 hr post H-I injury of UCL followed by 45 min hypoxia. Fluoro-Jade is an anionic fluorochrome capable of selectively staining degenerating neurons in brain slices. Coronal sections of 16 μm thickness were stained with FJB using the method adapted from Schmued and colleagues.^41 Briefly, tissues mounted on glass slides were sequentially placed in 100% ethanol for 3 min, 70% ethanol for 1 min and deionized water for 1 min. Sections were oxidized for 15 min using 0.06% KMnO4 solution followed by 3 brief rinses in PBS. Slides were then immersed in a 0.001% solution of Fluoro-Jade (Histochem, Jefferson, A R) in 0.1% acetic acid for 30 min, rinsed with PBS, dried for 20 min at 45° C., cleared with xylene and cover slips applied using DPX medium. FJB stained sections were examined under a microscope independently by 2 investigators blinded to the treatment group. […] The total scores for the hippocampus and cortex were compared in melatonin treated and vehicle group.

humans = settings: cited from earlier work
[5] = tested on: motor neurons in lumbar spinal cord of mSOD1 G93A ALS mice; assay: Nissl staining of motor neurons in lumbar spinal cord of mSOD1 G93A ALS mice; assay type: in vivo, mouse; settings: NAS treatment vs saline vehicle
Method: Nissl staining was performed in mSOD1G93A ALS mice and wild type littermates. Serial lumbar spinal cords were sectioned at 18 μm. Continuous 10 sections per mouse were subjected to Nissl staining. Stained motor neurons were counted in the ventral horns of all sections.

cerebral ischemia = settings: NAS administration; Zhou et al. 2014; cited from earlier work
WT mice = assay: Body weight of WT mice under NAS; assay type: in vivo, mouse; settings: NAS 7.5, 15, 30, 45 mg/kg, daily IP injection started at 6 weeks
[6] = tested on: mSOD1 G93A ALS transgenic mice; assay: mSOD1 G93A ALS mice: disease onset (rotarod), survival, body weight; assay type: in vivo, mouse
Method: Motor strength and coordination were evaluated using a rotarod. Mice were evaluated at both 15 and 5 rpm rotarod speeds. […] Mortality was defined as the age at death or when the mouse was unable to right itself within 30 second. Body weight was monitored weekly.
To determine whether NAS could be used therapeutically in these subjects, NAS was administered at 15 mg/kg/day by daily IP injection initiated at 6 weeks of age. […] ALS disease onset was defined as failure to pass the rotarod task at 15 rpm. […] Thus NAS administration also prevents motor neuron loss in mSOD1 G93A ALS mice.

[7] = melatonin 10 mg/kg IP once daily, first dose 30 min before H-I, 60 min hypoxia, 7 days after H-I, H&E
[8] = NAS 15 mg/kg/day, daily IP injection initiated at 6 weeks of age

Compound | MT1 expression in brains of H-I pups (western blot) [1] | hippocampal tissue (area) loss in the brain ipsilateral to carotid ligation [2, 7] | percentage brain tissue loss in the brain hemisphere ipsilateral to carotid ligation compared to the uninjured contralateral hemisphere [2, 7] | reduction in hippocampus damage ([2]; melatonin 10 mg/kg, hippocampus) | reduction in brain damage ([2]; melatonin 10 mg/kg, whole hemisphere) | reduction in brain damage [3] | score of FJB positive cells in the cortex [4] | score of FJB positive cells in the hippocampus [4] | side effects in humans (humans; humans) | safety profile in human newborns (humans; oxidative stress conditions in human newborns: asphyxia, sepsis, respiratory distress syndrome) | loss of motor neurons in lumbar spinal cord (Nissl staining) [5] | lesion size (cerebral ischemia) | neurological score (cerebral ischemia) | neuronal cell death (cerebral ischemia) | body weight in WT mice (WT mice) | loss of body weight during pathogenesis in mSOD1 G93A mice ([6]; NAS 15 mg/kg, daily IP injection started at 6 weeks) | ALS disease onset (failure to pass the rotarod task at 15 rpm) [6, 8] | survival / mortality [6, 8]
COc1ccc2[nH]cc(CCNC(C)=O)c2c1 [melatonin, N-acetyl-5-methoxytryptamine] | significantly ameliorated MT1 loss | 28.6% | 9.7% | 57% | 60% | 64% | significantly higher score (representing worse damage) in vehicle treated pups compared with melatonin treated pups | significantly higher score (representing worse damage) in vehicle treated pups compared with melatonin treated pups | minimal | good safety profile with no significant complications |  |  |  |  |  |  |  | 
CC(=O)NCCc1c[nH]c2ccc(O)cc12 [NAS, N-acetylserotonin] |  |  |  |  |  |  |  |  |  |  | ameliorate the loss of motor neurons | diminish lesion size | improve neurological score | attenuate neuronal cell death | no effect on body weight | prevents the loss of body weight | delayed disease onset; also recorded: delays ALS disease onset | extending survival
